According to patent US11479551B2, “MTA-cooperative PRMT5 inhibitors” (Mirati Therapeutics, Inc., priority 2019, dated 2022):
Where “and” joins values, the source holds several entries; their conditions need not be identical. Equal values may be shown once.

Legend:
PRMT5/MEP50 complex [1] = biological target: T1, PRMT5/MEP50 complex (Homo sapiens (Human), UniProt O14744); assay: PRMT5:MEP50 HotSpot Assay (full-length histone H2A substrate, plus and minus MTA); assay type: biochemical
Procedure: (§1) The PRMT5 inhibitory activity of compounds of the present invention was determined using either a PRMT5:MEP50 FlashPlate Assay (Reaction Biology Corporation) or a PRMT5:MEP50 HotSpot Assay (Reaction Biology Corporation).
The assay uses recombinant full-length histone H2A as the PRMT5 substrate. […] The reaction was stopped and transferred to filter paper for detection. The amount of tritiated H2A in each sample was determined using a scintillation counter.

PRMT5/MEP50 complex [2] = biological target: T1, PRMT5/MEP50 complex; assay: PRMT5:MEP50 FlashPlate Assay (histone H4 peptide substrate, plus and minus MTA); assay type: biochemical
Procedure: as §1
1. PRMT5:MEP50 FlashPlate Assay

[3] = IC50 + 2 μM MTA, in the presence of 2 μM MTA
[4] = in the absence of MTA, read-out: IC50
[5] = IC50 + 2 μM MTA (nM), in the presence of 2 μM MTA

T1 sequence (O14744 2-637): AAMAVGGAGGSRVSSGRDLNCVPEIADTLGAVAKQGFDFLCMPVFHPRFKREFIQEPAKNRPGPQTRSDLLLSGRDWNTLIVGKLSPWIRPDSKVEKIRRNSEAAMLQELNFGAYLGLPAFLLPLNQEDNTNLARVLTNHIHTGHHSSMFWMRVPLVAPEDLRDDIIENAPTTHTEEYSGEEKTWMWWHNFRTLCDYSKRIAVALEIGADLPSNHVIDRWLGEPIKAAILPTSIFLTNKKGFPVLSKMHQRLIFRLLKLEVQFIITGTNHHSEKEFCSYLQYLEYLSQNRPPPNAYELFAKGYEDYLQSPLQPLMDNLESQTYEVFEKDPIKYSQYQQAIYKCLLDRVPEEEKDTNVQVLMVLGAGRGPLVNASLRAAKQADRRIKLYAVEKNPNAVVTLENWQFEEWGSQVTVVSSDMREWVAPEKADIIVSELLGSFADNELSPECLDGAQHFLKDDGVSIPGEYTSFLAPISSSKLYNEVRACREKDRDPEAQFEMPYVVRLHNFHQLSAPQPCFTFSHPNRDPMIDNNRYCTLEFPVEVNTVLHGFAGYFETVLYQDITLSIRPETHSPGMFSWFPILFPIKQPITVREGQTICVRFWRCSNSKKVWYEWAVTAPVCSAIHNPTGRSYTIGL
T1 sequence (Q9BQA1 2-342 partner): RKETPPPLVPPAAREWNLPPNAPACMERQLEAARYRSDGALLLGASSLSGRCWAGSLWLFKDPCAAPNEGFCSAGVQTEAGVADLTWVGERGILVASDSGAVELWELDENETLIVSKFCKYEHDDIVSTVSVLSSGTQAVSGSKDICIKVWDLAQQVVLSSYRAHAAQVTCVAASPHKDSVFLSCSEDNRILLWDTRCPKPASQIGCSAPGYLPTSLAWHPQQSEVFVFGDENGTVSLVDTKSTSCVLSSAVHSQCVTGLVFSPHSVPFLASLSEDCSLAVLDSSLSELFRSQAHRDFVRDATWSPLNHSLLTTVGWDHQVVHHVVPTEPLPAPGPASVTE

Structure (SMILES) | IC50 (PRMT5/MEP50 complex [1]; [3]) | IC50 (PRMT5/MEP50 complex [2]; [5]) [nM] | IC50 (PRMT5/MEP50 complex [2]; [4]) [nM] | other results
CCOc1ccn2ncc(-c3ccc4c(=O)[nH]nc(CN)c4c3)c2c1 [Example 4-112, 4-(aminomethyl)-6-(5-ethoxypyrazolo[1,5-a]pyridin-3-yl)phthalazin-1(2H)-one] | 1020 nM | – | – | –
CC(C)Oc1ccn2ncc(-c3ccc4c(=O)[nH]nc(CN)c4c3)c2c1 [Example 4-113, 4-(aminomethyl)-6-(5-isopropoxypyrazolo[1,5-a]pyridin-3-yl)phthalazin-1(2H)-one] | 561 nM | – | – | –
NCc1n[nH]c(=O)c2ccc(-c3cnn4ccc(Oc5ccccc5)cc34)cc12 [Example 4-114, 4-(aminomethyl)-6-(5-phenoxypyrazolo[1,5-a]pyridin-3-yl)phthalazin-1(2H)-one] | 486 nM | – | – | –
Cn1ncc(-c2ccc3c(=O)[nH]nc(CN)c3c2)c1OCc1ccccc1 [Example 4-115, 4-(aminomethyl)-6-(5-(benzyloxy)-1-methyl-1H-pyrazol-4-yl)phthalazin-1(2H)-one] | 377 nM | – | – | –
Cn1ncc(-c2ccc3c(=O)[nH]nc(CN)c3c2)c1OCC1CC1 [Example 4-116, 4-(aminomethyl)-6-(5-(cyclopropylmethoxy)-1-methyl-1H-pyrazol-4-yl)phthalazin-1(2H)-one] | 1080 nM | – | – | –
Cn1ncc(-c2ccc3c(=O)[nH]nc(CN)c3c2)c1CCc1ccccc1 [Example 4-117, 4-(aminomethyl)-6-(1-methyl-5-phenethyl-1H-pyrazol-4-yl)phthalazin-1(2H)-one] | 536 nM | – | – | –
Cc1cccc(-c2c(-c3ccc4c(=O)[nH]nc(CN)c4c3)cnn2C)c1C#N [Example 4-118, 2-(4-(4-(aminomethyl)-1-oxo-1,2-dihydrophthalazin-6-yl)-1-methyl-1H-pyrazol-5-yl)-6-methylbenzonitrile] | 724 nM | – | – | IC50 (PRMT5/MEP50 complex [1]; [4]): 9920 nM
Cn1ncc(-c2ccc3c(=O)[nH]nc(CN)c3c2)c1-c1cccc(Cl)c1C#N [Example 4-119, 2-(4-(4-(aminomethyl)-1-oxo-1,2-dihydrophthalazin-6-yl)-1-methyl-1H-pyrazol-5-yl)-6-chlorobenzonitrile] | 441 nM | – | – | IC50 (PRMT5/MEP50 complex [1]; [4]): 5260 nM
Cn1ncc(-c2ccc3c(=O)[nH]nc(CN)c3c2)c1-c1cccc[n+]1[O-] [Example 4-120, 2-(4-(4-(aminomethyl)-1-oxo-1,2-dihydrophthalazin-6-yl)-1-methyl-1H-pyrazol-5-yl)pyridine 1-oxide] | > 10000 nM | – | – | –
NCc1n[nH]c(=O)c2ccc(-c3cncc(Oc4cccc5cccnc45)c3)cc12 [Example 4-121, 4-(aminomethyl)-6-(5-(quinolin-8-yloxy)pyridin-3-yl)phthalazin-1(2H)-one] | 177 nM | – | – | –
CN(c1cncc(-c2ccc3c(=O)[nH]nc(CN)c3c2)c1)c1cccc2cccnc12 [Example 4-122, 4-(aminomethyl)-6-(5-(methyl(quinolin-8-yl)amino)pyridin-3-yl)phthalazin-1(2H)-one] | 3820 nM | – | – | –
CCc1cccc(-c2c(-c3ccc4c(=O)[nH]nc(CN)c4c3)cnn2C)c1C#N [Example 4-123, 2-(4-(4-(aminomethyl)-1-oxo-1,2-dihydrophthalazin-6-yl)-1-methyl-1H-pyrazol-5-yl)-6-ethylbenzonitrile] | 549 nM | – | – | –
CCc1ccc(-c2c(-c3ccc4c(=O)[nH]nc(CN)c4c3)cnn2C)c(C#N)c1 [Example 4-124, 2-(4-(4-(aminomethyl)-1-oxo-1,2-dihydrophthalazin-6-yl)-1-methyl-1H-pyrazol-5-yl)-5-ethylbenzonitrile] | 826 nM | – | – | –
CCc1ccc(C#N)c(-c2c(-c3ccc4c(=O)[nH]nc(CN)c4c3)cnn2C)c1 [Example 4-125, 2-(4-(4-(aminomethyl)-1-oxo-1,2-dihydrophthalazin-6-yl)-1-methyl-1H-pyrazol-5-yl)-4-ethylbenzonitrile] | 1000 nM | – | – | –
Cn1ncc(-c2ccc3c(=O)[nH]nc(CN)c3c2)c1-c1ccc(C2CC2)cc1C#N [Example 4-126, 2-(4-(4-(aminomethyl)-1-oxo-1,2-dihydrophthalazin-6-yl)-1-methyl-1H-pyrazol-5-yl)-5-cyclopropylbenzonitrile] | 361 nM | – | – | –
COc1cc(C#N)c(-c2c(-c3ccc4c(=O)[nH]nc(CN)c4c3)cnn2C)cc1Cl [Example 4-133, 2-(4-(4-(aminomethyl)-1-oxo-1,2-dihydrophthalazin-6-yl)-1-methyl-1H-pyrazol-5-yl)-4-chloro-5-methoxybenzonitrile] | 1570 nM | – | – | –
CCc1ccc(-c2c(-c3ccc4c(=O)[nH]nc(CN)c4c3)cnn2C)cc1 [Example 4-134, 4-(aminomethyl)-6-(5-(4-ethylphenyl)-1-methyl-1H-pyrazol-4-yl)phthalazin-1(2H)-one] | 2730 nM | – | – | –
Cn1ncc(-c2ccc3c(=O)[nH]nc(CN)c3c2)c1-c1ccc(OC2CC2)cc1 [Example 4-136, 4-(aminomethyl)-6-(5-(4-cyclopropoxyphenyl)-1-methyl-1H-pyrazol-4-yl)phthalazin-1(2H)-one] | 872 nM | – | – | –

Structure (SMILES) | IC50 (PRMT5/MEP50 complex [1]; [3]) | IC50 (PRMT5/MEP50 complex [2]; [5]) [nM] | IC50 (PRMT5/MEP50 complex [2]; [4]) [nM] | other results
Cn1ncc(-c2ccc3c(=O)[nH]nc(CN)c3c2)c1-c1ccc(OC2CCC2)cc1 [Example 4-138, 4-(aminomethyl)-6-(5-(4-cyclobutoxyphenyl)-1-methyl-1H-pyrazol-4-yl)phthalazin-1(2H)-one] | 354 nM | – | – | –
Cn1ncc(-c2ccc3c(=O)[nH]nc(CN)c3c2)c1-c1ccccc1Cl [Example 4-143, 4-(aminomethyl)-6-(5-(2-chlorophenyl)-1-methyl-1H-pyrazol-4-yl)phthalazin-1(2H)-one] | 1170 nM | – | – | –
Cn1ncc(-c2ccc3c(=O)[nH]nc(CN)c3c2)c1-c1c(Cl)cccc1Cl [Example 4-144, 4-(aminomethyl)-6-(5-(2,6-dichlorophenyl)-1-methyl-1H-pyrazol-4-yl)phthalazin-1(2H)-one] | 454 nM | – | – | –
Cn1ncc(-c2ccc3c(=O)[nH]nc(CN)c3c2)c1-c1c(F)cccc1C#N [Example 4-152, 2-(4-(4-(aminomethyl)-1-oxo-1,2-dihydrophthalazin-6-yl)-1-methyl-1H-pyrazol-5-yl)-3-fluorobenzonitrile] | 978 nM and 1910 nM | – | – | –
Cn1ncc(-c2ccc3c(=O)[nH]nc(CN)c3c2)c1-c1ccccc1C(F)F [Example 4-153, 4-(aminomethyl)-6-(5-(2-(difluoromethyl)phenyl)-1-methyl-1H-pyrazol-4-yl)phthalazin-1(2H)-one] | 1650 nM | – | – | –
Cn1ncc(-c2ccc3c(=O)[nH]nc(CN)c3c2)c1OCc1ccccc1Cl [Example 4-154, 4-(aminomethyl)-6-(5-((2-chlorobenzyl)oxy)-1-methyl-1H-pyrazol-4-yl)phthalazin-1(2H)-one] | 3280 nM | – | – | –
Cn1ncc(-c2ccc3c(=O)[nH]nc(CN)c3c2)c1OCc1cccc(Cl)c1 [Example 4-155, 4-(aminomethyl)-6-(5-((3-chlorobenzyl)oxy)-1-methyl-1H-pyrazol-4-yl)phthalazin-1(2H)-one] | 3460 nM | – | – | –
Cc1ccc(Oc2cncc(-c3ccc4c(=O)[nH]nc(CN)c4c3)c2)cc1 [Example 7-5, 4-(aminomethyl)-6-(5-(p-tolyloxy)pyridin-3-yl)phthalazin-1(2H)-one] | – | 2 | 64 | –
N#Cc1ccc(Oc2cncc(-c3ccc4c(=O)[nH]nc(CN)c4c3)c2)cc1 [Example 7-6, 4-((5-(4-(aminomethyl)-1-oxo-1,2-dihydrophthalazin-6-yl)pyridin-3-yl)oxy)benzonitrile] | – | 18 | 577 | –
N#Cc1ccc(F)cc1-c1cncc(-c2ccc3c(=O)[nH]nc(CN)c3c2)c1 [Example 8-1, 2-(5-(4-(aminomethyl)-1-oxo-1,2-dihydrophthalazin-6-yl)pyridin-3-yl)-4-fluorobenzonitrile] | – | 47 | 1650 | –
N#Cc1ccc(-c2cncc(-c3ccc4c(=O)[nH]nc(CN)c4c3)c2)c(C#N)c1 [Example 8-2, 4-(5-(4-(aminomethyl)-1-oxo-1,2-dihydrophthalazin-6-yl)pyridin-3-yl)isophthalonitrile] | – | 36 | 3150 | –
COc1ccc(-c2cncc(-c3ccc4c(=O)[nH]nc(CN)c4c3)c2)c(C#N)c1 [Example 8-3, 2-(5-(4-(aminomethyl)-1-oxo-1,2-dihydrophthalazin-6-yl)pyridin-3-yl)-5-methoxybenzonitrile] | – | 2.3 | 237 | –
N#Cc1cc(Cl)ccc1-c1cncc(-c2ccc3c(=O)[nH]nc(CN)c3c2)c1 [Example 8-4, 2-(5-(4-(aminomethyl)-1-oxo-1,2-dihydrophthalazin-6-yl)pyridin-3-yl)-5-chlorobenzonitrile] | – | 3.1 | 313 | –
N#Cc1cc(F)ccc1-c1cncc(-c2ccc3c(=O)[nH]nc(CN)c3c2)c1 [Example 8-5, 2-(5-(4-(aminomethyl)-1-oxo-1,2-dihydrophthalazin-6-yl)pyridin-3-yl)-5-fluorobenzonitrile] | – | 23 | 691 | –
N#Cc1ccc(Cl)cc1-c1cncc(-c2ccc3c(=O)[nH]nc(CN)c3c2)c1 [Example 8-6, 2-(5-(4-(aminomethyl)-1-oxo-1,2-dihydrophthalazin-6-yl)pyridin-3-yl)-4-chlorobenzonitrile] | – | 52 | 2140 | –
Cc1ccc(C#N)c(-c2cncc(-c3ccc4c(=O)[nH]nc(CN)c4c3)c2)c1 [Example 8-7, 2-(5-(4-(aminomethyl)-1-oxo-1,2-dihydrophthalazin-6-yl)pyridin-3-yl)-4-methylbenzonitrile] | – | 33 | 931 | –
COc1ccc(C#N)c(-c2cncc(-c3ccc4c(=O)[nH]nc(CN)c4c3)c2)c1 [Example 8-8, 2-(5-(4-(aminomethyl)-1-oxo-1,2-dihydrophthalazin-6-yl)pyridin-3-yl)-4-methoxybenzonitrile] | – | 20 | 795 | –
N#CCc1ccc2c(CN)n[nH]c(=O)c2c1 [Example 13-1, 2-[1-(aminomethyl)-4-oxo-3H-phthalazin-6-yl]acetonitrile] | – | 25000 | 89600 | –
